According to US9782368B2, “Use of N,N-bis-2-mercaptoethyl isophthalamide” (EMERAMED LIMITED, priority 2014, dated 2017):

Test system: cigarette smoke (CS)-induced airway disease
Assay: In vivo smoking mouse study I (14-day cigarette smoke exposure)
Design: species or system BALB/c mice
Method: A mouse model of cigarette smoke (CS)-induced airway disease was developed, in which four groups of BALB/c mice were exposed to CS (nose-only) using a cigarette smoking machine that produces a combination of side-stream and mainstream smoke from filtered research cigarettes, 7 days a week over 2 weeks.
As part of a 14-day dose-finding study, three groups of mice were administered NMBI subcutaneously (5, 30 or 150 mg/kg) before each exposure to CS. Inflammatory cell counts in bronchoalveolar lavage (BAL), flow cytometry (FACS) analysis and cytokine analysis in BAL were carried out.
Female BALB/c mice (Harlem laboratories, Netherlands) were used in this study. They were housed in plastic cages with absorbent bedding material and were maintained on a 12 hour daylight cycle. Food and water were provided ad libitum. Their care and the experimental protocols were approved by the Regional Ethics Committee on Animal Experiments in Umeå. Mice were 12 weeks of age when the cigarette exposure protocol started.
Animals were subjected to inhaled CS (both side-stream and main-stream smoke). The CS exposure was performed in a microprocessor-controlled cigarette smoking machine (TE-10, Teague Enterprises, CA, USA) that produces smoke from research cigarettes (1R5F, University of Kentucky, Lexington, Ky., USA).
Cigarettes are automatically loaded into a wheel, lit, puffed and ejected. Each cigarette was smoked for 10 minutes and the airflow through the machine was set to 12 L/min. Cigarettes were stored at −20° C. until needed. Mice were subjected to 4 cigarettes every 10 minutes×3 (i.e. 12 cigarettes over 30 minutes), once a day, 7 days a week, over two weeks. The smoke was transferred into a smoke tower (EMMS, UK) providing equal and simultaneous exposure to the CS.
Mice were placed into plastic chambers and subjected to CS by “nose-only” inhalation. Control mice were handled every day and breathed room-air, but were not taken out of their cages.
Accordingly, the 5 treatment groups are as follows: • 1. Daily exposure to clean air (Placebo Group) • 2. Daily exposure to CS (CS-Exposed Placebo Group) • 3. Daily exposure to CS; treated with NBMI at a 5 mg/kg dose (NBMI 5 mg/kg Group) • 4. Daily exposure to CS; treated with NBMI at a 30 mg/kg dose (NBMI 30 mg/kg Group) • 5. Daily exposure to CS; treated with NBMI at a 150 mg/kg dose (NBMI 150 mg/kg Group)
On Day 15, mice were exsanguinated and subjected to bronchoalveolar lavage (BAL). The lungs were lavaged four times via the tracheal tube with a total volume of 1 mL+3×1 mL Ca^2+/Mg^2+ free Hanks' balanced salt solution (HBSS, Sigma-Aldrich, Steinheim, Germany).
The BAL fluid was then immediately centrifuged (10 minutes, 4° C., 1750 rpm). After removing the supernatant until further analysis, the cell pellet was re-suspended and then diluted with 0.5 mL PBS. Leukocytes were counted manually in a hemocytometer so that 20,000 cells could be loaded and centrifuged using a Cytospin® centrifuge (Shandon® cytospin 3 cyto-centrifuge, cell preparation system).
Cytocentrifuged preparations were stained with May-Grünwald-Giemsa reagent and differential cell counts of pulmonary inflammatory cells (macrophages, neutrophils, lymphocytes, and eosinophils) were made using standard morphological criteria and counting 300 cells per cytospin preparation.
Inflammatory mediators in BAL and serum were analyzed for the presence of interleukin (IL)-1α, IL-1β, IL-2, IL-3, IL-4, IL-5, IL-6, IL-9, IL-10, IL-12p40, IL-12p70, IL-13, IL17, Eotaxin, G-CSF, INFγ, GM-CSF, KC, MCP-1, MIP-1α, MIP-Iβ, RANTES and TNFα. All cytokine analyses were performed simultaneously with a multiplex kit (BioPlex™ Pro Mouse Cytokine 23-plex panel) according to the manufacturer's instructions (Bio-Rad) and analyzed on a Bio-Plex™ system (Luminex Bio-Plex™ 200 System, Bio-Rad, Hercules, Calif.).
Leukocytes from BAL were analyzed with flow cytometry using a BD FACSort™ (Becton Dickinson, San Jose, Calif.). […]

## O=C(NCCS)c1cccc(C(=O)NCCS)c1 [NBMI, N,N-bis-2-mercaptoethyl isophthalamide]
5 mg/kg s.c., p<0.05
  MIP-1α levels in BAL vs CS-Exposed Placebo Group: lowered
30 mg/kg s.c.
  IL-10 level in serum: increased levels
150 mg/kg s.c.
  Eotaxin level in serum vs CS-Exposed Placebo Group: significantly lowered levels
  IL-1β level in serum vs CS-Exposed Placebo Group: significantly lowered levels
  IL-3 level in serum vs CS-Exposed Placebo Group: significantly lowered levels
  IL-6 level in serum vs CS-Exposed Placebo Group: significantly lowered levels
  MIP-1α level in serum vs CS-Exposed Placebo Group: significantly lowered levels
  RANTES level in serum vs CS-Exposed Placebo Group: significantly lowered levels
150 mg/kg s.c., 14 days
  wounds at injection site: established wounds in the neck
5 and 30 mg/kg s.c., 14 days
  ulceration: no signs of ulceration
CS-exposed, regardless of dose of NBMI
  weight change from Day 1 to Day 15: lost weight significantly
Day 15, 5 mg/kg s.c., CS-exposed, vs CS-exposed 20.3±0.3 g, p<0.05
  final weight: 19.5 ± 0.3 g
Day 15, 30 mg/kg s.c.
  neutrophils in BAL vs mice just exposed to CS: significantly lower numbers of neutrophils
Day 15, 150 mg/kg s.c.
  neutrophils in BAL vs mice just exposed to CS: significantly lower numbers of neutrophils
All groups (5, 30, 150 mg/kg)
  CD4 cells and CD8 cells in BAL fluid: no significant differences
